Results as given in paper PMC9607427, “Novel 7-Chloro-(4-thioalkylquinoline) Derivatives: Synthesis and Antiproliferative Activity through Inducing Apoptosis and DNA/RNA Damage” (Pharmaceuticals, 2022).
Read-outs that look alike come from different tables or passages of the source.

Tests used:
[1] = tested on: eight human cancer and 4 non-tumor cell lines; assay: Cytotoxic MTS assay, whole panel of tested cell lines; type: cell-based; conditions: for Selectivity for leukemic and colorectal cancer cells compared to MRC-5: leukemic and colorectal (with and without p53 deletion) cancer cells vs MRC-5; for Selectivity for cancer cells compared against BJ and MRC-5 cells: colon, leukemia, lung and osteosarcoma cancer cell lines vs BJ and MRC-5
Procedure: (§1) In vitro cytotoxic activity of final compounds 5–82 was evaluated after 3 days of incubation against eight cell lines derived from human solid tumors including lung (A549 cells) and colon (HCT116 and HCT116p53−/−) carcinomas, as well as leukemia cell lines (CCRF-CEM, CEM-DNR, K562, and K562-TAX) and osteosarcoma (U2OS cells). For comparison, non-malignant BJ and MRC-5 fibroblasts, and BJLD and MCR-5LD fibroblasts doxorubicin-resistant cell lines were used. Concentrations inhibiting the cell growth by 50% (IC50) were determined using a quantitative metabolic staining with 3-(4,5-dimethylthiazol-2yl)-5-(3-carboxymethoxyphenyl)-2-(4-sulfophenyl)-2H-tetrazolium (MTS) and are summarized in (Table 3).
(§2) Cytotoxic activity was determined by MTS assay following 72 h of incubation. IC50 is the lowest concentration that kills 50% of cells. The standard deviation in cytotoxicity assays is typically up to 20% of the average value. […] The tested cell lines: A549 (lung adenocarcinoma), BJ (noncancerous human fibroblasts from foreskin), BJLD (human lung fibroblast doxorubicin-resistant), CCRF-CEM (childhood T cell acute lymphoblastic leukemia), a daunorubicin-resistant subline of CCRF-CEM cells (CEM-DNR bulk), HCT116 (colorectal carcinoma), HCT116p53−/− (HCT116 with deleted p53 gene), K562 (chronic myeloid leukemia), K562-TAX (chronic myeloid leukemia paclitaxel-resistant subline), MRC-5 (noncancerous human lung fibroblasts), MRC-5LD (noncancerous human lung fibroblasts doxorubicin-resistant), and U2OS (osteosarcoma).
(§3) All cell lines were purchased from the American Tissue Culture Collection (ATCC). The A549 cell line is lung adenocarcinoma. MRC-5 and BJ cell lines were used as a non-tumor control and represent human fibroblasts. (MRC-5 LD and BJLD) are doxorubicin-resistant human lung fibroblast cell lines. The CCRF-CEM line is derived from T lymphoblastic leukemia, evincing high chemosensitivity, whereas K562 represent cells from an […] patient sample with bcr-abl translocation. The daunorubicin-resistant subline of CCRF-CEM cells (CEM-DNR bulk) and paclitaxel-resistant subline K562-TAX were selected in our laboratory by the cultivation of maternal cell lines in increasing concentrations of daunorubicin or paclitaxel, respectively. The CEM-DNR bulk cells overexpress MRP-1 and P-glycoprotein protein, whereas K562-TAX cells overexpress P-glycoprotein only. Both proteins belong to the family of ABC transporters and are involved in the primary and/or acquired multidrug-resistance phenomenon. The U2OS cell line is derived from osteosarcoma, HCT116 is a colorectal tumor cell line and its p53 gene knock-down counterpart (HCT116p53−/−, Horizon Discovery Ltd., Cambridge, UK) is a model of human cancers with p53 mutation frequently associated with poor prognosis. The cells were maintained in nunc/corning 80 cm^2 plastic tissue culture flasks and cultured in a cell culture medium according to ATCC or Horizon recommendations (DMEM/RPMI 1640 with 5 g/L glucose, 2 mM glutamine, 100 U/mL penicillin, […], 10% fetal calf serum, and NaHCO3).
(§4) The activity of compounds was determined using a standard 3-(4,5-dimethylthiazol-2-yl)-5-(3-carboxymethoxyphenyl)-2-(4-sulfophenyl)-2H-tetrazolium (MTS) and it was performed at the Institute of Molecular and Translational Medicine by a robotic platform (High-ResBiosolutions). Cell suspensions were prepared and diluted according to the particular cell type and the expected target cell density (25,000–35,000 cells/mL based on cell growth characteristics). Cells were added by automatic pipettor (30 µL) into 384-well microtiter plates. All tested compounds were dissolved in 100% DMSO and four-fold dilutions of the intended test concentration were added in 0.15 µL aliquots at time zero to the microtiter plate wells by the echo acoustic non-contact liquid handler Echo550 (Labcyte). […]

[2] = as above; type: cell-based, human; conditions: human; MTS, 72 h of incubation, all tested cell lines; read-out: Cytotoxic activity IC50, tested cell lines (considered inactive)
Procedure: as §1, §2, §3, §4

Cytotoxic MTS assay, BJ = type: cell-based, human; conditions: human, BJ cells (noncancerous foreskin fibroblasts); MTS, 72 h of incubation
Outline: (§5)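 MTS metabolic staining of human tumour and fibroblast lines after 72 h compound exposure at 37 °C, 5% CO2; OD read at 490 nm after 1-4 h MTS incubation. IC50 taken as concentration giving 50% growth inhibition; technical duplicates, at least three biological replicates.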

[3] = tested on: HCT116 (colorectal carcinoma); assay: Cytotoxic MTS assay, HCT116; type: cell-based, human
Outline: (§6)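 Growth inhibition over 72 h at 37 °C was quantified with MTS reagent (OD 490 nm), using four-fold compound dilutions added at seeding; the 50% inhibitory concentration was reported.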

U2OS (osteosarcoma) = assay: Cytotoxic MTS assay, U2OS; type: cell-based, human
Outline: as §6

[4] = tested on: HCT116p53−/− (HCT116 with deleted p53 gene); assay: Cytotoxic MTS assay, HCT116p53−/−; type: cell-based, human
Outline: as §6

[5] = Cytotoxic MTS assay, MRC-5LD; type: cell-based, human; conditions: human; MTS, 72 h of incubation; read-out: Cytotoxic activity IC50, MRC5-LD
Outline: as §5

[6] = Cytotoxic MTS assay, MRC-5; type: cell-based, human; conditions: human, MRC-5 cells (noncancerous lung fibroblasts); MTS, 72 h of incubation
Outline: as §5

[7] = tested on: CEM-DNR bulk (daunorubicin-resistant subline of CCRF-CEM cells); assay: Cytotoxic MTS assay, CEM-DNR; type: cell-based, human
Outline: as §6

[8] = tested on: A549 (lung adenocarcinoma); assay: Cytotoxic MTS assay, A549; type: cell-based, human
Outline: as §6

[9] = Cytotoxic MTS assay, BJLD; type: cell-based, human; conditions: human, BJLD cells (fibroblasts, doxorubicin-resistant); MTS, 72 h of incubation
Outline: as §6

[10] = tested on: CCRF-CEM (childhood T cell acute lymphoblastic leukemia); assay: Cytotoxic MTS assay, CCRF-CEM; type: cell-based, human
Outline: as §6

[11] = tested on: K562 (chronic myeloid leukemia); assay: Cytotoxic MTS assay, K562; type: cell-based, human
Outline: as §6

[12] = tested on: K562-TAX (chronic myeloid leukemia paclitaxel-resistant subline); assay: Cytotoxic MTS assay, K562-TAX; type: cell-based, human
Outline: as §6

[13] = tested on: BJ (noncancerous human fibroblasts from foreskin); assay: Cytotoxic MTS assay, BJ; type: cell-based
Outline: as §5

[14] = tested on: MRC-5LD (noncancerous human lung fibroblasts doxorubicin-resistant); assay: Cytotoxic MTS assay, MRC-5LD; type: cell-based
Outline: as §5

[15] = tested on: MRC-5 (noncancerous human lung fibroblasts); assay: Cytotoxic MTS assay, MRC-5; type: cell-based
Outline: as §5

[16] = tested on: BJLD (human lung fibroblast doxorubicin-resistant); assay: Cytotoxic MTS assay, BJLD; type: cell-based
Outline: as §6

[17] = Homo sapiens, HCT-116, MTS, 72 h of incubation, read-out: Cytotoxic activity IC50, HCT116
[18] = Homo sapiens, U2OS, MTS, 72 h of incubation, read-out: Cytotoxic activity IC50, U2OS
[19] = Homo sapiens, HCT-116, MTS, 72 h of incubation, read-out: Cytotoxic activity IC50, HCT116-p53
[20] = Homo sapiens, CEM-DNR, MTS, 72 h of incubation, read-out: Cytotoxic activity IC50, CEM-DNR
[21] = Homo sapiens, A549, MTS, 72 h of incubation, read-out: Cytotoxic activity IC50, A549
[22] = Homo sapiens, CCRF-CEM, MTS, 72 h of incubation, read-out: Cytotoxic activity IC50, CCRF-CEM
[23] = Homo sapiens, K562, MTS, 72 h of incubation, read-out: Cytotoxic activity IC50, K562
[24] = Homo sapiens, K562-Tax, MTS, 72 h of incubation, read-out: Cytotoxic activity IC50, K562-TAX

SMILES	IC50 [13] [µM]	IC50 [3] [µM]	IC50 (U2OS (osteosarcoma)) [µM]	IC50 [4] [µM]	IC50 [14] [µM]	IC50 [15] [µM]	IC50 [7] [µM]	IC50 [8] [µM]	IC50 [16] [µM]	IC50 [10] [µM]	IC50 [11] [µM]	IC50 [12] [µM]	also measured
COc1cc(OC)cc(C(=O)OCCC[S+]([O-])c2ccnc3cc(Cl)ccc23)c1 (stereo not shown) [Compound 55, 3-[(7-Chloroquinolin-4-yl)sulfinyl]propyl-,5-dimethoxybenzoate]	–	–	–	–	–	–	–	–	–	–	–	–	IC50 [1]: > 50 µM
COc1cc(OC)c(C(=O)OCCC[S+]([O-])c2ccnc3cc(Cl)ccc23)cc1OC (stereo not shown) [Compound 56, 3-[(7-Chloroquinolin-4-yl)sulfinyl]propyl-2,4,5-trimethoxybenzoate]	–	–	–	–	–	–	–	–	–	–	–	–	IC50 at 72 h [2]: > 50 µM
O=C(OCCC[S+]([O-])c1ccnc2cc(Cl)ccc12)c1ccc(C(F)(F)F)cc1 (stereo not shown) [Compound 62, 3-[(7-Chloroquinolin-4-yl)sulfinyl]propyl-4-(trifluoromethyl)benzoate]	–	–	–	–	–	–	–	–	–	–	–	–	IC50 at 72 h (Cytotoxic MTS assay, BJ): 29.9 µM; IC50 [3, 17]: 15.7 µM; IC50 (U2OS (osteosarcoma); [18]): 14.3 µM; IC50 [4, 19]: 9.61 µM; IC50 at 72 h [5]: 25.9 µM; IC50 at 72 h [6]: 29.4 µM; IC50 [7, 20]: 10.5 µM; IC50 [8, 21]: 26.1 µM; IC50 at 72 h [9]: 30.1 µM; IC50 [10, 22]: 1.17 µM; IC50 [11, 23]: 17.6 µM; IC50 [12, 24]: 9.15 µM
COc1cc(C(=O)OCCS(=O)(=O)c2cc[n+]([O-])c3cc(Cl)ccc23)cc(OC)c1OC [Compound 67, 2-[(N-Oxide 7-chloroquinolin-4-yl)sulfonyl]ethyl-3,4,5-trimethoxybenzoate]	–	–	–	–	–	–	–	–	–	–	–	–	IC50 at 72 h (Cytotoxic MTS assay, BJ): 24.8 µM; IC50 [3, 17]: 11.1 µM; IC50 (U2OS (osteosarcoma); [18]): 9.23 µM; IC50 [4, 19]: 7.87 µM; IC50 at 72 h [5]: 3.24 µM; IC50 at 72 h [6]: 5.79 µM; IC50 [7, 20]: 8.93 µM; IC50 [8, 21]: 28.4 µM; IC50 at 72 h [9]: 11.9 µM; IC50 [10, 22]: 1.05 µM; IC50 [11, 23]: 6.05 µM; IC50 [12, 24]: 5.19 µM
Cc1ccc(C)c(C(=O)OCCS(=O)(=O)c2cc[n+]([O-])c3cc(Cl)ccc23)c1 [Compound 71, 2-[(N-Oxide 7-chloroquinolin-4-yl)sulfonyl]ethyl-,5-dimethylbenzoate]	–	–	–	–	–	–	–	–	–	–	–	–	IC50 [1]: > 50 µM
COc1ccc(C(=O)OCCCS(=O)(=O)c2cc[n+]([O-])c3cc(Cl)ccc23)cc1 [Compound 73, 3-[(N-Oxide 7-chloroquinolin-4-yl)sulfonyl]propyl-4-methoxybenzoate]	12.4	1.99	5.75	2.24	19	21.9	4.7	5.44	10.7	2.18	2.2	4.62	Selectivity for leukemic and colorectal cancer cells compared to MRC-5 [1]: good selectivity
COc1cccc(C(=O)OCCCS(=O)(=O)c2cc[n+]([O-])c3cc(Cl)ccc23)c1OC [Compound 74, 3-[(N-Oxide 7-chloroquinolin-4-yl)sulfonyl]propyl-2,3-dimethoxybenzoate]	14.9	3.23	5.4	–	16.2	20.4	5.58	5.35	10.5	1.41	2.71	4.91	Selectivity for leukemic and colorectal cancer cells compared to MRC-5 [1]: good selectivity
COc1ccc(C(=O)OCCCS(=O)(=O)c2cc[n+]([O-])c3cc(Cl)ccc23)cc1[N+](=O)[O-] [Compound 79, 3-[(N-Oxide 7-chloroquinolin-4-yl)sulfonyl]propyl-4-methoxy-3-nitrobenzoate]	19	3.81	4.95	4.98	13.8	20.6	4.49	5.79	12	1.05	6.09	3.73	Cancer cell selectivity for A549 cells compared to BJ and MRC-5 cell lines ([8]; A549 vs BJ and MRC-5): moderate cancer cell selectivity; Selectivity for cancer cells compared against BJ and MRC-5 cells [1]: good selectivity
Cc1cc(C)cc(C(=O)OCCCS(=O)(=O)c2cc[n+]([O-])c3cc(Cl)ccc23)c1 [Compound 81, 3-[(N-Oxide 7-chloroquinolin-4-yl)sulfonyl]propyl-3,5-dimethylbenzoate]	32.5	3.46	5.67	4.76	21.9	46.7	6.63	5.32	25.4	1.2	3.78	6.26	Selectivity for cancer cells compared against BJ and MRC-5 cells [1]: most pronounced selectivity
